Experimental data reported in US20220202739A1, “ENDOCANNABINOID MIMETIC AND ANTI-INFLAMMATORY COMPOUND CONTAINING COMPOSITIONS, METHODS OF PREPARATION AND USES THEREOF” (priority 2019, published 2022).
Like-named read-outs stand apart in the source and are kept apart here.

Tests used:
Format in all cases: cell-based
CNR1 = test: Gene expression custom microarray, human skin fibroblasts (Example 1): CNR1; conditions: for fold induction at 10 µM: Skin fibroblast, read-out: CNR1↑ gene expression, fold increase or decrease vs untreated cells
Excerpt: (§1) Cell cultures: A human skin fibroblast cell culture (or cultures) was obtained through the Coriell Cell Repository from the National Institute on Aging Cell Repository (Camden, N.J.), or Promocell GmbH (Heidelberg, Germany). The initial culture was selected from the following cell lines: AG13066, AG11557, AG11796 or GM03651E. The cell lines were derived from donors as follows:
(§2) Experimental phase: When the appropriate quantity of cells had been grown, they were detached as described above, but at the final step were seeded into each well of one or more 6 well dishes. Each well received 2 ml of the cell suspension so they were seeded equally. The dishes were returned to the incubator until 85-95% confluency was reached.
(§3) It is at this stage that all wells were rinsed in PBS after aspirating the growth media. The compound(s) to be tested were previously mixed into a suitable solvent (e.g., DMSO or ethanol) that can be diluted to the desired concentration of test compound (10 μl) in the culture wells without exceeding maximum solvent concentrations and adversely effecting cell viability, and mixed with basal media. NOTE: Standard maximum levels of solvent are 0.1% for DMSO and 0.5% for ETOH. The concentration of each test compound is found in Tables 1 & 2.
(§4) Every 2 wells on the 6 well plate served as a biological replicate for the purposes of RNA isolation and genetic expression evaluations making each 6 well dish an n=3 for the test compound(s) contained in the media. Negative control plates (no test compound(s) and only basal media) were also generated. The plates were returned to the incubator for 24 hrs.
(§5) At the end of the 24 hr time period, the plates were removed from the incubator, the test media aspirated, and the cells rinsed with PBS. RNA isolation is performed using the BioRad Aurum Total RNA Mini Kit (Hercules, Calif.) per manufacturer's protocol; which is described, in brief, below: • Add 350 μl of lysis buffer to each well. Pipet multiple times to ensure thorough lysis. Add lysed cells to the collection tube. • Add 350 μl of 70% ETOH to the collection tube and mix thoroughly. • Pipet the generated lysate onto the spin column placed in a new 2 ml tube. Centrifuge for 30 sec between 8,000 and 10,000 g. • Place the spin column containing the now bound RNA, in a new 2 ml tube. Add 700 μl of low stringency wash solution to the spin column. Centrifuge for 30 sec between 8,000 and 10,000 g. Discard the flow through and replace spin column. • Add 80 μl of DNase I dilution to the spin column and incubate at room temperature for 15 minutes. • Add 700 μl of high stringency wash solution to the column and centrifuge for 30 sec between 8,000 and 10,000 g. Discard flow through. • Add 700 μl of low stringency wash solution to the column and centrifuge for 60 sec between 8,000 and 10,000 g. Discard flow through. • Centrifuge for 2 minutes to remove residual wash solution. • Transfer spin column to new 1.5 ml collection tube and add 80 μl of elution solution to the column. Allow 1 minute for saturation of the membrane and then centrifuge for 2 minutes to complete the RNA elution. • Quantify the quantity of RNA and store at −20 C° until use (no more than 1 month)
(§6) The genes tested were: • Cannabinoid receptor 1 (CB1(CNR1)) • Cannabinoid receptor 2 (CB2 (CNR2)) • Fatty acid amide hydrolase (FAAH) • Monoacylglycerol lipase (MGLL, i.e., MAGL) • Peroxisome proliferator-activated receptor gamma (PPARG) • Nuclear factor kappa-light-chain-enhancer of activated B cells (NFκβ) • Interleukin 1 Alpha (IL1alpha) • Cyclooxygenase 1 (PTGS1, i.e., COX1) • Transient receptor potential cation channel subfamily A member 1 (TRPA1) • Transient receptor potential cation channel subfamily V member 1 (TRPV1) • Transient receptor potential cation channel subfamily M member 8 (TRPM8) • Hemoglobin Subunit Beta (HBB) REFERENCE GENE • Ribosomal Protein L13a (RPL13A) REFERENCE GENE […]

CNR2 = test: Gene expression custom microarray, human skin fibroblasts (Example 1): CNR2; conditions: human skin fibroblasts, 10 uM, 24 hr; for fold induction at 10 µM: Skin fibroblast, read-out: CNR2↑ gene expression, fold increase or decrease vs untreated cells
Excerpt: as §1, §2, §3, §4, §5, §6

FAAH = test: Gene expression custom microarray, human skin fibroblasts (Example 1): FAAH; conditions: for fold induction at 10 µM: Skin fibroblast, read-out: FAAH↓ gene expression, fold increase or decrease vs untreated cells
Excerpt: as §1, §2, §3, §4, §5, §6

IL1A = test: Gene expression custom microarray, human skin fibroblasts (Example 1): IL1A; conditions: 24 hr; for fold induction at 10 µM: Skin fibroblast, read-out: IL1A↓ gene expression, fold increase or decrease vs untreated cells; for IL1A↓ gene expression, fold increase or decrease vs untreated cells: 10 uM
Excerpt: as §1, §2, §3, §4, §5, §6

NFKB1 = test: Gene expression custom microarray, human skin fibroblasts (Example 1): NFKB1; conditions: for fold induction at 10 µM: Skin fibroblast, read-out: NFKB1↓ gene expression, fold increase or decrease vs untreated cells
Excerpt: as §1, §2
(§7) It is at this stage that all wells were rinsed in PBS after aspirating the growth media. The compound(s) to be tested were previously mixed into a suitable solvent (e.g., DMSO or ethanol) that can be diluted to the desired concentration of test compound (10 μl) in the culture wells without exceeding maximum solvent concentrations and adversely effecting cell viability, and mixed with basal media. NOTE: Standard maximum levels of solvent are 0.1% for DMSO and 0.5% for ETOH.
as §4, §5
(§8) The genes tested were: • Cannabinoid receptor 1 (CB1(CNR1)) • Cannabinoid receptor 2 (CB2 (CNR2)) • Fatty acid amide hydrolase (FAAH) • Monoacylglycerol lipase (MGLL, i.e., MAGL) • Peroxisome proliferator-activated receptor gamma (PPARG) • Nuclear factor kappa-light-chain-enhancer of activated B cells (NFκβ) • Interleukin 1 Alpha (IL1alpha) • Cyclooxygenase 1 (PTGS1, i.e., COX1) • Transient receptor potential cation channel subfamily A member 1 (TRPA1) • Transient receptor potential cation channel subfamily V member 1 (TRPV1) • Transient receptor potential cation channel subfamily M member 8 (TRPM8) • Hemoglobin Subunit Beta (HBB) REFERENCE GENE • Ribosomal Protein L13a (RPL13A) REFERENCE GENE

TRPA1 = test: Gene expression custom microarray, human skin fibroblasts (Example 1): TRPA1; conditions: for fold induction at 10 µM: Skin fibroblast, read-out: TRPA1↑ gene expression, fold increase or decrease vs untreated cells
Excerpt: as §1, §2, §3, §4, §5, §6

TRPM8 = test: Gene expression custom microarray, human skin fibroblasts (Example 1): TRPM8; conditions: 24 hr; for fold induction at 10 µM: Skin fibroblast, read-out: TRPM8↑ gene expression, fold increase or decrease vs untreated cells; for TRPM8↑ gene expression, fold increase or decrease vs untreated cells: 10 uM
Excerpt: as §1, §2, §3, §4, §5, §6

MAGL = test: Gene expression custom microarray, human skin fibroblasts (Example 1): MAGL; conditions: for fold induction at 10 µM: Skin fibroblast, read-out: MAGL↓ gene expression, fold increase or decrease vs untreated cells
Excerpt: as §1, §2, §3, §4, §5, §6

PPARG = test: Gene expression custom microarray, human skin fibroblasts (Example 1): PPARG; conditions: for fold induction at 10 µM: Skin fibroblast, read-out: PPARG↑ gene expression, fold increase or decrease vs untreated cells
Excerpt: as §1, §2, §7, §4, §5, §8

PTGS1 = test: Gene expression custom microarray, human skin fibroblasts (Example 1): PTGS1; conditions: for fold induction at 10 µM: Skin fibroblast, read-out: PTGS1↓ gene expression, fold increase or decrease vs untreated cells
Excerpt: as §1, §2, §3, §4, §5, §6

TRPV1 = test: Gene expression custom microarray, human skin fibroblasts (Example 1): TRPV1; conditions: 10 uM, 24 hr
Excerpt: as §1, §2, §3, §4
At the end of the 24 hr time period, the plates were removed from the incubator, the test media aspirated, and the cells rinsed with PBS. RNA isolation is performed using the BioRad Aurum Total RNA Mini Kit (Hercules, Calif.) per manufacturer's protocol; which is described, in brief, below: • Add 350 μl of lysis buffer to each well. Pipet multiple times to ensure thorough lysis. Add lysed cells to the collection tube. • Add 350 μl of 70% ETOH to the collection tube and mix thoroughly. • Pipet the generated lysate onto the spin column placed in a new 2 ml tube. Centrifuge for 30 sec between 8,000 and 10,000 g. • Place the spin column containing the now bound RNA, in a new 2 ml tube. Add 700 μl of low stringency wash solution to the spin column. Centrifuge for 30 sec between 8,000 and 10,000 g. […] Allow 1 minute for saturation of the membrane and then centrifuge for 2 minutes to complete the RNA elution. • Quantify the quantity of RNA and store at −20 C° until use (no more than 1 month) […]

[1] = human skin fibroblasts, 10 uM, 24 hr

Compound	fold induction at 10 µM (CNR2)	fold induction at 10 µM (FAAH; [1])	fold induction at 10 µM (IL1A)	fold induction at 10 µM (NFKB1; [1])	fold induction at 10 µM (TRPA1; [1])	fold induction at 10 µM (TRPM8)	fold induction at 10 µM (MAGL; [1])	fold induction at 10 µM (PPARG; [1])	fold induction at 10 µM (PTGS1; [1])	other results
COc1cc(/C=C/C(=O)CC(=O)/C=C/c2ccc(O)c(OC)c2)ccc1O [Curcumin]	55.4	1.8	4.9	1.1	4.9	47.9				fold induction at 10 µM (CNR1; [1]): 47.4
C[C@@H]1C(=O)O[C@H]2[C@H](O)[C@@]34[C@H]5C[C@@H](C(C)(C)C)[C@]36[C@@H](OC(=O)[C@@H]6O)O[C@@]4(C(=O)O5)[C@@]12O [Ginkolide, Ginkolide B]										CNR1↑ gene expression, fold increase or decrease vs untreated cells (CNR1; [1]): 1.1 fold; CNR2↑ gene expression, fold increase or decrease vs untreated cells (CNR2): −1.2 fold; FAAH↓ gene expression, fold increase or decrease vs untreated cells (FAAH; [1]): −1.1 fold; MAGL↓ gene expression, fold increase or decrease vs untreated cells (MAGL; [1]): 2.3 fold; IL1A↓ gene expression, fold increase or decrease vs untreated cells (IL1A): −3.3 fold; NFKB1↓ gene expression, fold increase or decrease vs untreated cells (NFKB1; [1]): −1.2 fold; PPARG↑ gene expression, fold increase or decrease vs untreated cells (PPARG; [1]): −1.3 fold; PTGS1↓ gene expression, fold increase or decrease vs untreated cells (PTGS1; [1]): −1.3 fold; TRPA1↑ gene expression, fold increase or decrease vs untreated cells (TRPA1; [1]): 1.1 fold; TRPM8↑ gene expression, fold increase or decrease vs untreated cells (TRPM8): 2.1 fold; TRPV1↑ gene expression, fold increase or decrease vs untreated cells (TRPV1): −2.6 fold
CCCCCCCC/C=C\CCCCCCCC(=O)NCCO [N-Oleylethanolamide]										CNR1↑ gene expression, fold increase or decrease vs untreated cells (CNR1; [1]): −1.9 fold; CNR2↑ gene expression, fold increase or decrease vs untreated cells (CNR2): −2.4 fold; FAAH↓ gene expression, fold increase or decrease vs untreated cells (FAAH; [1]): −1.1 fold; MAGL↓ gene expression, fold increase or decrease vs untreated cells (MAGL; [1]): 2.5 fold; IL1A↓ gene expression, fold increase or decrease vs untreated cells (IL1A): −1.9 fold; NFKB1↓ gene expression, fold increase or decrease vs untreated cells (NFKB1; [1]): 1.5 fold; PPARG↑ gene expression, fold increase or decrease vs untreated cells (PPARG; [1]): 2.4 fold; PTGS1↓ gene expression, fold increase or decrease vs untreated cells (PTGS1; [1]): 1.5 fold; TRPA1↑ gene expression, fold increase or decrease vs untreated cells (TRPA1; [1]): 1.1 fold; TRPM8↑ gene expression, fold increase or decrease vs untreated cells (TRPM8): −1.4 fold; TRPV1↑ gene expression, fold increase or decrease vs untreated cells (TRPV1): −1.6 fold
COC(=O)c1ccccc1O [Methyl Salicylate, reference compound]				1.9	3		2.4	1.8	1.4	
O=c1cc(-c2ccccc2)oc2cc(O)ccc12 [7-Hydroxyflavone]										fold induction at 10 µM (FAAH; Homo sapiens, 24 h): 1.2; fold induction at 10 µM (MAGL; Homo sapiens, 24 h): 2; fold induction at 10 µM (NFKB1; Homo sapiens, 24 h): 1.1; fold induction at 10 µM (PPARG; Homo sapiens, 24 h): 1.4; fold induction at 10 µM (PTGS1; Homo sapiens, 24 h): 1.4
CC(C)=CCC[C@](C)(O[C@@H]1O[C@H](CO[C@@H]2O[C@@H](CO)[C@H](O)[C@H]2O)[C@@H](O)[C@H](O)[C@H]1O)[C@H]1CC[C@]2(C)[C@@H]1[C@H](O)C[C@@H]1[C@@]3(C)CC[C@H](O[C@@H]4O[C@H](CO)[C@@H](O)[C@H](O)[C@H]4O[C@@H]4O[C@H](CO)[C@@H](O)[C@H](O)[C@H]4O)C(C)(C)[C@@H]3CC[C@]12C [Ginsenoside, ginsenoside RC]				1.8					7.9	fold induction at 10 µM (TRPA1; Homo sapiens, 24 h): 1.5
CC1CCC(C(C)C)C(O)C1 (centres unmarked) [Menthol, reference compound]		2		3.4	2.5		2.7	1.8	7.8	
C=CCc1ccc(O)c(OC)c1 [Eugenol]	109	3	39.2		30.1	152		1.6		fold induction at 10 µM (CNR1; [1]): 148
C=CCc1ccc(O)c(-c2ccc(O)c(CC=C)c2)c1 [Honokiol]	1.3	2.3	1.8	1.6	1.4	1.8	2.7	2.3	1.5	fold induction at 10 µM (CNR1; Homo sapiens, 24 h): 1.2
